Reference: US20150141506A1, “INDANE DIMERS FOR USE IN THE TREATMENT OF AUTOIMMUNE INFLAMMATORY DISEASE” (Venantius Limited, priority 2012, published 2015)

Test system: IL2 release from Jurkat cells
Assay: Effect of compounds on IL-2 secretion in T lymphocytes (Jurkat 6.1, anti-CD3/anti-CD28 stimulated, ELISA)
Type: cell-based
Details: for activity at 1 µM / activity at 10 µM: Homo sapiens, Jurkat, read-out: IL2 release as percentage of anti-CD3/CD28 stimulated release in presence of DMSO, Mean; for activity at 1 µM / activity at 10 µM / IL-2 production, absolute values: 24 h; for IL-2 production, absolute values: 30 min pre-treatment, DMSO control 320.67 (plate 2), 338.25 (plate 3); for effect on IL2 release, in words: 1 and 10 μM
Protocol: The T cell line Jurkat 6.1 (ATCC) was used. Cells were pre-treated for 30 min with 1 μM or 10 μM of the respective compound and then stimulated with plate-bound anti-CD3 (BD Pharmingen) and anti-CD28 (AnCell). DMSO was used as vehicle control. […] After 24 hs the supernatant was collected and IL-2 secretion was measured by ELISA.
Compounds were prepared by dissolution in DMSO to yield final concentrations of 1 and 10 μg/ml

| SMILES | activity at 1 µM | activity at 10 µM | IL-2 production, absolute values (compound 1 uM) | IL-2 production, absolute values (compound 10 uM) | effect on IL2 release, in words |
| --- | --- | --- | --- | --- | --- |
| CCCOC(=O)c1ccc(C[C@]2(C3=Cc4ccccc4C3)Cc3ccccc3[C@@H]2OC(=O)[C@@H](N)CC(C)C)cc1 [Compound 34, propyl 4-(((1R,2R)-1-(((S)-2-amino-4-methylpentanoyl)oxy)-2,3-dihydro-1H,1′H-[2,2′-biinden]-2-yl)methyl)benzoate] | 95.8% | 51.5% | 173.25 pg/mL | 71.38 pg/mL | – |
| CC(C)C[C@H](N)C(=O)O[C@@H]1c2ccccc2C[C@@]1(Cc1ccc(C(N)=O)cc1)C1=Cc2ccccc2C1 [Compound 42, (1S,2S)-2-(4-carbamoylbenzyl)-2,3-dihydro-1H,1′H-2,2′-biinden-1-yl L-leucinate] | 76.1% | 30% | 77.71 pg/mL | 49.57 pg/mL | – |
| CC[C@H](C)[C@H](N)C(=O)O[C@H]1c2ccccc2C[C@]1(Cc1ccc(C(=O)O)cc1)C1=Cc2ccccc2C1 [Compound 26, 4-{[(1′R,2′R)-1′-(L-isoleucyloxy)-1′,3′-dihydro-1H,2′H-2,2′-biinden-2′yl]methyl}benzoic acid] | – | – | 202.25 pg/mL | 192.63 pg/mL | – |
| CC(C)C[C@H](N)C(=O)O[C@H]1c2ccccc2C[C@]1(Cc1ccc(C(=O)NCCO)cc1)C1=Cc2ccccc2C1 [Compound 36, (1R,2R)-2-{4-[(2-hydroxyethyl)carbamoyl]benzyl}-2,3-dihydro-1H,1′H-2,2′-biinden-1-yl L-leucinate] | 96% | 56.3% | 207.38 pg/mL | 138.13 pg/mL | – |
| CNC(=O)c1ccc(C[C@]2(C3=Cc4ccccc4C3)Cc3ccccc3[C@@H]2OC(=O)[C@@H](N)CC(C)C)cc1 [Compound 37, (1R,2R)-2-[4-(methylcarbamoyl)benzyl]-2,3-dihydro-1H,1′H-2,2′-biinden-1-yl L-leucinate] | 99.2% | 50.2% | 275.50 pg/mL | 79.00 pg/mL | – |
| CNC(=O)c1ccc(C[C@@]2(C3=Cc4ccccc4C3)Cc3ccccc3[C@H]2O)cc1 [Compound 22, 4-{[(1′S,2′S)-1′-hydroxy-1′,3′-dihydro-1H,2′H-2,2′-biinden-2′-yl]methyl}-N-methylbenzamide] | – | – | 198.56 pg/mL | 113.33 pg/mL | – |
| CNC(=O)c1ccc(C[C@@]2(C3=Cc4ccccc4C3)Cc3ccccc3[C@H]2OC(=O)[C@@H](N)CC(C)C)cc1 [Compound 44, (1S,2S)-2-[4-(methylcarbamoyl)benzyl]-2,3-dihydro-1H,1′H-2,2′-biinden-1-yl L-leucinate] | 76.2% | 21% | 72.50 pg/mL | 12.43 pg/mL | – |
| CC(C)C[C@H](N)C(=O)O[C@H]1c2ccccc2C[C@]1(Cc1ccc(C(=O)O)cc1)C1=Cc2ccccc2C1 [Compound 24, 4-{[(1′R,2′R)-1′-(L-leucyloxy)-1′,3′-dihydro-1H,2′H-2,2′-biinden-2′-yl]methyl}benzoic acid] | – | – | 202.13 pg/mL | 149.63 pg/mL | – |
| CN(C)C(=O)c1ccc(C[C@@]2(C3=Cc4ccccc4C3)Cc3ccccc3[C@H]2O)cc1 [Compound 23, 4-{[(1′S,2′S)-1′-hydroxy-1′,3′-dihydro-1H,2′H-2,2′-biinden-2′-yl]methyl}-N,N-dimethylbenzamide] | – | – | 191.44 pg/mL | 193.56 pg/mL | – |
| CC(C)C[C@H](N)C(=O)O[C@@H]1c2ccccc2C[C@@]1(Cc1ccc(C(=O)NCCO)cc1)C1=Cc2ccccc2C1 [Compound 43, (1S,2S)-2-{4-[(2-Hydroxyethyl)carbamoyl]benzyl}-2,3-dihydro-1H,1′H-2,2′-biinden-1-yl leucinate] | 72.4% | 8.4% | 97.57 pg/mL | 12.79 pg/mL | greatest inhibition of IL2 release |
| CC(C)C[C@H](N)C(=O)O[C@@H]1c2ccccc2C[C@@]1(Cc1ccc(C(=O)N(C)C)cc1)C1=Cc2ccccc2C1 [Compound 45, (1S,2S)-2-[4-(dimethylcarbamoyl)benzyl]-2,3-dihydro-1H,1′H-2,2′-biinden-1-yl L-leucinate] | 51.5% | 1.5% | 56.07 pg/mL | 14.29 pg/mL | greatest inhibition of IL2 release |
| CNC(=O)c1ccc(C[C@]2(C3=Cc4ccccc4C3)Cc3ccccc3[C@@H]2O)cc1 [Compound 15, 4-{[(1′R,2′R)-1′-hydroxy-1′,3′-dihydro-1H,2′H-2,2′-biinden-2′-yl]methyl}-N-methylbenzamide] | – | – | 207.78 pg/mL | 113.67 pg/mL | – |
| COC(=O)c1ccc(C[C@]2(C3=Cc4ccccc4C3)Cc3ccccc3[C@@H]2O)cc1 [Compound 10, methyl 4-(((1R,2R)-1-hydroxy-2,3-dihydro-1H,1′H-[2,2′-biinden]-2-yl)methyl)benzoate] | – | – | 185.56 pg/mL | – | – |
| CCOC(=O)c1ccc(C[C@]2(C3=Cc4ccccc4C3)Cc3ccccc3[C@@H]2O)cc1 [Compound 11, ethyl 4-(((1R,2R)-1-hydroxy-2,3-dihydro-1H,1′H-[2,2′-biinden]-2-yl)methyl)benzoate] | – | – | 272.22 pg/mL | 105.11 pg/mL | – |
| CC(C)C[C@H](N)C(=O)O[C@H]1c2ccccc2C[C@]1(Cc1ccc(C(=O)N(C)C)cc1)C1=Cc2ccccc2C1 [Compound 38, (1R,2R)-2-[4-(dimethylcarbamoyl)benzyl]-2,3-dihydro-1H,1′H-2,2′-biinden-1-yl L-leucinate] | 107% | 62.7% | 226.75 pg/mL | 268.63 pg/mL | inactive |
| COC(=O)c1ccc(C[C@@]2(C3=Cc4ccccc4C3)Cc3ccccc3[C@H]2O)cc1 [Compound 17, methyl 4-(((1S,2S)-1-hydroxy-2,3-dihydro-1H,1′H-[2,2′-biinden]-2-yl)methyl)benzoate] | – | – | 168.44 pg/mL | – | – |
| NCC(=O)O[C@H]1c2ccccc2C[C@]1(Cc1ccc(C(=O)O)cc1)C1=Cc2ccccc2C1 [Compound 27, 4-{[(1′R,2′R)-1′-(glycyloxy)-1′,3′-dihydro-1H,2′H-2,2′-biinden-2′-yl]methyl}benzoic acid] | – | – | 350.13 pg/mL | 172.88 pg/mL | potentiates release of IL2 |
| CN(C)C(=O)c1ccc(C[C@]2(C3=Cc4ccccc4C3)Cc3ccccc3[C@@H]2O)cc1 [Compound 16, 4-{[(1′R,2′R)-1′-hydroxy-1′,3′-dihydro-1H,2′H-2,2′-biinden-2′-yl]methyl}-N,N-dimethylbenzamide] | – | – | 243.00 pg/mL | 171.78 pg/mL | – |
| CCOC(=O)c1ccc(C[C@@]2(C3=Cc4ccccc4C3)Cc3ccccc3[C@H]2O)cc1 [Compound 18, ethyl 4-(((1S,2S)-1-hydroxy-2,3-dihydro-1H,1′H-[2,2′-biinden]-2-yl)methyl)benzoate] | – | – | 190.78 pg/mL | 79.56 pg/mL | – |
| CCCOC(=O)c1ccc(C[C@@]2(C3=Cc4ccccc4C3)Cc3ccccc3[C@H]2OC(=O)[C@@H](N)CC(C)C)cc1 [Compound 41, propyl 4-(((1S,2S)-1-(((S)-2-amino-4-methylpentanoyl)oxy)-2,3-dihydro-1H, 1′H-[2,2′-biinden]-2-yl)methyl)benzoate] | 77% | 42.1% | 99.50 pg/mL | 62.50 pg/mL | – |
| COC(=O)c1ccc(C[C@]2(C3=Cc4ccccc4C3)Cc3ccccc3[C@@H]2OC(=O)[C@@H](N)CC(C)C)cc1 [Compound 32, methyl 4-(((1R,2R)-1-(((S)-2-amino-4-methylpentanoyl)oxy)-2,3-dihydro-1H,1′H-[2,2′-biinden]-2-yl)methyl)benzoate] | 86.2% | 40.8% | 215.25 pg/mL | 74.88 pg/mL | – |
| O=C(NCCO)c1ccc(C[C@@]2(C3=Cc4ccccc4C3)Cc3ccccc3[C@H]2O)cc1 [Compound 21, 4-{[(1′S,2′S)-1′-hydroxy-1′,3′-dihydro-1H,2′H-2,2′-biinden-2′-yl]methyl}-N-(2-hydroxyethyl)benzamide] | – | – | 210.89 pg/mL | 137.78 pg/mL | – |
| CC(C)C[C@H](N)C(=O)O[C@@H]1c2ccccc2C[C@@]1(Cc1ccc(C(=O)O)cc1)C1=Cc2ccccc2C1 [Compound 28, 4-{[(1′S,2′S)-1′-(L-leucyloxy)-1′,3′-dihydro-1H,2′H-2,2′-biinden-2′-yl]methyl}benzoic acid] | – | – | 214.75 pg/mL | 135.63 pg/mL | – |
| O=C(Nc1ccc(O)c(C(=O)O)c1)c1ccc(C[C@]2(C3=Cc4ccccc4C3)Cc3ccccc3[C@@H]2O)cc1 [Compound 46, 2-hydroxy-5-(4-(((1R,2R)-1-hydroxy-2,3-dihydro-1H,1′H-[2,2′-biinden]-2-yl)methyl)benzamido)benzoic acid] | – | – | 92.21 pg/mL | 72.07 pg/mL | – |
